Assay results reported in PMC8707461, “In Vitro and In Vivo Inhibition of MATE1 by Tyrosine Kinase Inhibitors” (Pharmaceutics, 2021).
pIC50: −log10 of the molar value.

Legend:
MATE1 [1] = molecular target: T1, MATE1 (Homo sapiens, UniProt Q96FL8); assay: [14C]TEA uptake in HEK293 cells overexpressing human MATE1; details: human
T1 sequence (Q96FL8 1-570): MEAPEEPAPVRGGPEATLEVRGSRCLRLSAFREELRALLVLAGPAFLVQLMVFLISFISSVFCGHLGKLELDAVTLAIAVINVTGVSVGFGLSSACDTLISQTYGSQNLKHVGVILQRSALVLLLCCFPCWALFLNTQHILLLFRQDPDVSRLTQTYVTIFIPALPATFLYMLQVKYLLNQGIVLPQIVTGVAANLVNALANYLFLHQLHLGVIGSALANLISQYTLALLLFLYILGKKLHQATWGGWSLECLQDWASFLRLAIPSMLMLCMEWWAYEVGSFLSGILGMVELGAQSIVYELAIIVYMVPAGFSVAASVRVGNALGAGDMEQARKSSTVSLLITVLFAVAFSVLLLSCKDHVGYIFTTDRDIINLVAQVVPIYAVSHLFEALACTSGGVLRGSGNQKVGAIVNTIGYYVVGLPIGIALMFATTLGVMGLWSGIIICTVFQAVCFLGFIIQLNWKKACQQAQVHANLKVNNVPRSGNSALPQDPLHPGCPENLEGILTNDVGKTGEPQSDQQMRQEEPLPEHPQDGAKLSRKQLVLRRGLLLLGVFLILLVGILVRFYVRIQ
Method: Uptake experiments in HEK293 cells overexpressing mouse (m) and human (h) OCT2 or MATE1 were performed with radiolabeled tetraethylammonium (TEA) as the model substrate, using standard methods in the presence or absence of TKIs. The cell culture and uptake conditions for cells expressing mMATE1 or hMATE1 were described previously. […] Since the inhibitory potential of various xenobiotics against OCT2 and MATE1 is dependent on preincubation with perpetrator drugs, a 15-min preincubation period with the TKIs was employed unless stated otherwise. All results were normalized to uptake values in cells transfected with an empty vector or DMSO-treated groups.
MATE1-overexpressed cells were pre-incubated with transport media containing 30 mM ammonium chloride for 20 min at 37 °C following previously published protocol (pH 7.4 for hMATE1 [17, 18, 19] and pH 8.4 for mMATE1 [20, 21]) to ensure interactions can be evaluated between outward-facing MATE1 and substrate uptake before adding inhibitors. Then, preincubation media was removed and cells were incubated with transport media (NH4Cl free) containing radiolabeled compounds. […] The uptake of TEA and metformin was measured by liquid scintillation counting, as described previously. For uptake studies involving platinum drugs, cells were collected with TrypLE, and the pellets were lysed overnight in 0.2% nitric acid. After sonication, total platinum levels were determined by flameless atomic absorption spectrometry.

MATE1 [2] = details: publicly available information; ref FDA/EMA or supplement refs 1-8; cited from earlier work
[3] = HEK293 cells overexpressing human MATE1, pH 7.4, probe [14C]TEA (tetraethylammonium), 2 µM

Row | Structure (SMILES) | inhibition at 10 µM (MATE1 [1]; [3]) | pIC50 (MATE1 [2]) | inhibition at 10 µM (MATE1 [1]; pH 7.4)
1 | CNC(=O)c1ccc(-c2cnc3ncc(Cc4ccc5ncccc5c4)n3n2)cc1F [Capmatinib] | 99.7% | – | –
2 | CCc1nc(C(N)=O)c(Nc2ccc(N3CCC(N4CCN(C)CC4)CC3)c(OC)c2)nc1NC1CCOCC1 [Gilteritinib] | 96.7% | – | –
4 | CCOc1cc2ncc(C#N)c(Nc3ccc(OCc4ccccn4)c(Cl)c3)c2cc1NC(=O)/C=C/CN(C)C [Neratinib] | 90.9% | – | –
5 | COc1cc2nccc(Oc3ccc(NC(=O)Nc4cc(C)on4)c(Cl)c3)c2cc1OC [Tivozanib] | 90.3% | – | –
6 | COC(=O)N[C@@H](C)CNc1nccc(-c2cn(C(C)C)nc2-c2cc(Cl)cc(NS(C)(=O)=O)c2F)n1 [Encorafenib] | 66.1% | – | –
7 | COc1ccc(CN2C3CC2CN(c2ccc(-c4cc(OCC(C)(C)O)cn5ncc(C#N)c45)cn2)C3)cn1 [Selpercatinib] | 97.4% | 6.18 | –
8 | COc1cc2nccc(Oc3ccc(NC(=O)NC4CC4)c(Cl)c3)c2cc1C(N)=O [Lenvatinib] | 87.7% | – | –
9 | COc1cc(Nc2ncc(F)c(Nc3ccc4c(n3)N(COP(=O)(O)O)C(=O)C(C)(C)O4)n2)cc(OC)c1OC [Fostamatinib] | 40.2% | – | –
10 | CO[C@@H]1[C@H](N(C)C(=O)c2ccccc2)C[C@H]2O[C@]1(C)n1c3ccccc3c3c4c(c5c6ccccc6n2c5c31)C(=O)NC4 [Midostaurin] | 50% | – | –
11 | CC#CC(=O)N1CCC[C@H]1c1nc(-c2ccc(C(=O)Nc3ccccn3)cc2)c2c(N)nccn12 [Acalabrutinib] | 43.3% | – | –
12 | COc1cc2nccc(Oc3ccc(NC(=O)C4(C(=O)Nc5ccc(F)cc5)CC4)cc3)c2cc1OC [Cabozantinib] | 95.8% | > 5.00 | –
13 | Cc1cc(Nc2ncnc3ccc(NC4=NC(C)(C)CO4)cc23)ccc1Oc1ccn2ncnc2c1 [Tucatinib] | 96.3% | – | –
14 | CCS(=O)(=O)N1CC(CC#N)(n2cc(-c3ncnc4[nH]ccc34)cn2)C1 [Baricitinib] | 55.5% | – | –
15 | FC(F)(F)c1ccc(CNc2ccc(Cc3c[nH]c4ncc(Cl)cc34)cn2)cn1 [Pexidartinib] | 75.6% | – | –
16 | N#CC[C@H](C1CCCC1)n1cc(-c2ncnc3[nH]ccc23)cn1 [Ruxolitinib] | 63% | > 5.00 | –
17 | C[C@@H]1CCN(C(=O)CC#N)C[C@@H]1N(C)c1ncnc2[nH]ccc12 [Tofacitinib] | 90.4% | ~5.00 | –
18 | C=CC(=O)N1CCC([C@@H]2CCNc3c(C(N)=O)c(-c4ccc(Oc5ccccc5)cc4)nn32)CC1 [Zanubrutinib] | 94.5% | – | –
19 | COc1cc2ncnc(Nc3ccc(F)c(Cl)c3)c2cc1NC(=O)/C=C/CN1CCCCC1 [Dacomitinib] | 91.6% | – | –
20 | CCn1c(=O)c(-c2cc(NC(=O)Nc3ccccc3)c(F)cc2Br)cc2cnc(NC)cc21 [Ripretinib] | 51.9% | – | –
21 | CS(=O)(=O)CCNCc1ccc(-c2ccc3ncnc(Nc4ccc(OCc5cccc(F)c5)c(Cl)c4)c3c2)o1 [Lapatinib] | – | < 5.00 | 38.7%
22 | O=C(c1ccc(F)c(F)c1Nc1ccc(I)cc1F)N1CC(O)([C@@H]2CCCCN2)C1 [Cobimetinib] | 83.3% | – | –
23 | CC[C@@H]1CN(C(=O)NCC(F)(F)F)C[C@@H]1c1cnc2cnc3[nH]ccc3n12 [Upadacitinib] | 77.2% | – | –
24 | Cc1ccc(C(=O)Nc2ccc(CN3CCN(C)CC3)c(C(F)(F)F)c2)cc1C#Cc1cnc2cccnn12 [Ponatinib] | – | > 5.00 | 84.9%
25 | CN1CCN(c2ccc(C(=O)Nc3n[nH]c4ccc(Cc5cc(F)cc(F)c5)cc34)c(NC3CCOCC3)c2)CC1 [Entrectinib] | 99.6% | – | –

Row | Structure (SMILES) | inhibition at 10 µM (MATE1 [1]; [3]) | pIC50 (MATE1 [2]) | inhibition at 10 µM (MATE1 [1]; pH 7.4)
26 | Cc1cnc(Nc2ccc(OCCN3CCCC3)cc2)nc1Nc1cccc(S(=O)(=O)NC(C)(C)C)c1 [Fedratinib] | 98.6% | – | –
27 | Cn1cnc2c(F)c(Nc3ccc(Br)cc3F)c(C(=O)NOCCO)cc21 [Binimetinib] | 47.6% | < 4.30 | –
28 | CCc1cc2c(cc1N1CCC(N3CCOCC3)CC1)C(C)(C)c1[nH]c3cc(C#N)ccc3c1C2=O [Alectinib] | 0% | – | –
29 | CC(C)(C)c1nc(-c2cccc(NS(=O)(=O)c3c(F)cccc3F)c2F)c(-c2ccnc(N)n2)s1 [Dabrafenib] | 72.1% | – | –
30 | COc1cc(N2CCC(N3CCN(C)CC3)CC2)ccc1Nc1ncc(Cl)c(Nc2ccccc2P(C)(C)=O)n1 [Brigatinib] | – | – | 95.9%
31 | C#Cc1cccc(Nc2ncnc3cc(OCCOC)c(OCCOC)cc23)c1 [Erlotinib] | – | […] | 87%
32 | Cn1cc(-c2cc3c(N4CCN(c5ncc([C@@](C)(N)c6ccc(F)cc6)cn5)CC4)ncnn3c2)cn1 [Avapritinib] | 78.6% | – | –
33 | C=CC(=O)Nc1cccc(Oc2nc(Nc3ccc(N4CCN(C)CC4)cc3)nc3ccsc23)c1 [Olmutinib] | 97.7% | – | –
34 | CNC(=O)c1ccccc1Sc1ccc2c(/C=C/c3ccccn3)n[nH]c2c1 [Axitinib] | 60.8% | – | –
35 | Cc1cn(-c2cc(NC(=O)c3ccc(C)c(Nc4nccc(-c5cnccn5)n4)c3)cc(C(F)(F)F)c2)cn1 [Radotinib] | 73% | – | –
36 | Cc1cc(Nc2ncc(Cl)c(Nc3ccccc3S(=O)(=O)C(C)C)n2)c(OC(C)C)cc1C1CCNCC1 [Ceritinib] | 96.1% | – | –
37 | CCCS(=O)(=O)Nc1ccc(F)c(C(=O)c2c[nH]c3ncc(-c4ccc(Cl)cc4)cc23)c1F [Vemurafenib] | 34.1% | – | –
38 | COc1cc2ncnc(Nc3ccc(F)c(Cl)c3)c2cc1OCCCN1CCOCC1 [Gefitinib] | 91.8% | – | –
39 | COC(=O)c1ccc2c(c1)NC(=O)/C2=C(\Nc1ccc(N(C)C(=O)CN2CCN(C)CC2)cc1)c1ccccc1 [Nintedanib] | 95.3% | – | –
40 | CC(=O)Nc1cccc(-n2c(=O)n(C3CC3)c(=O)c3c(Nc4ccc(I)cc4F)n(C)c(=O)c(C)c32)c1 [Trametinib] | 96.1% | 7.22 | –
41 | O=C(Nc1cnn2ccc(N3CCC[C@@H]3c3cc(F)ccc3F)nc12)N1CC[C@H](O)C1 [Larotrectinib] | 21.1% | – | –
42 | CCN1C(=O)N(c2c(F)c(OC)cc(OC)c2F)Cc2cnc3[nH]c(CN4CCOCC4)cc3c21 [Pemigatinib] | 80.1% | – | –
43 | Cc1ccc(Nc2nccc(N(C)c3ccc4c(C)n(C)nc4c3)n2)cc1S(N)(=O)=O [Pazopanib] | 90.2% | > 6.33 | –
44 | CO[C@]1(C(=O)N[C@@H](C)c2ccc(-n3cc(F)cn3)nc2)CC[C@H](c2nc(C)cc(Nc3cc(C)[nH]n3)n2)CC1 [Pralsetinib] | 94.5% | – | –
45 | C=CC(=O)Nc1cc(Nc2nccc(-c3cn(C)c4ccccc34)n2)c(OC)cc1N(C)CCN(C)C [Osimertinib] | 94.1% | – | –
46 | C[C@@H](Oc1cc(-c2cnn(C3CCNCC3)c2)cnc1N)c1c(Cl)ccc(F)c1Cl [Crizotinib] | – | […] | 96.8%
47 | COc1cc2c(Nc3ccc(Br)cc3F)ncnc2cc1OCC1CCN(C)CC1 [Vandetanib] | 99.5% | > 5.00 | –
48 | C[C@H]1Oc2cc(cnc2N)-c2c(nn(C)c2C#N)CN(C)C(=O)c2ccc(F)cc21 [Lorlatinib] | 61.8% | – | –
49 | CN(C)C/C=C/C(=O)Nc1cc2c(Nc3ccc(F)c(Cl)c3)ncnc2cc1O[C@H]1CCOC1 [Afatinib] | 89.6% | > 5.00 | –
